Here are results for 3 compounds from US20240034765A1, “SCG2 NEUROPEPTIDES AND USES THEREOF” (PRESIDENT AND FELLOWS OF HARVARD COLLEGE, priority 2020, published 2024).

The subject of data set [1] is hM3DGq-expressing neurons. The data set can be described thus: Cell-attached recording of CA1 PC in slice after bath application of CNO. In kind it is cell-based, mice. The conditions noted are these: cell-attached mode.
The subject of the next data set is CA1 neurons. The data set can be described thus: AAV-based activity reporter mKate2 labelling of recently activated CA1 neurons. In kind it is in vivo, mice. The note with it: 24 h post-KA injection. Here is the method:
First, tests were performed to determine whether either of these forms of perisomatic inhibition (by PV-expressing INs and CCK-expressing INs) are differentially regulated onto Fos-expressing neurons compared to neighboring non-Fos-expressing neurons. Mice were exposed to a series of novel environments, which robustly activated Fos in a sparse subset of CA1 PCs (see e.g., FIG. 1A, FIG. 7A-FIG. 7D). To label these Fos-expressing neurons, an adeno-associated virus (AAV)-based reporter was used that expresses the fluorescent protein mKate2 selectively in recently activated neurons (see e.g., FIG. 1B); see e.g., Fenno et al. Nat Methods 11, 763-772, (2014), the content of which is incorporated herein by reference in its entirety. Using this reporter, a significant increase was detected in the number of recently activated neurons (mKate2^+) in mice exposed to 2-3 days (see e.g., FIG. 1D) of novel environments (NE) compared to control mice housed under standard (Strd) conditions (see e.g., FIG. 1C). This 2-3d timepoint was therefore appropriate for assessing the long-lasting effects of Fos and its late-response target gene(s), which were usually activated within 1-12 hours (h) of stimulus onset (see e.g., FIG. 1D).
Intraperitoneal (i.p.) injections.
Histology. Mice were anaesthetized with 10 mg/mL ketamine and 1 mg/mL xylazine in phosphate buffered saline (PBS) via i.p. injection. […]

Another data set has as its system CA1. Description: Cell health in CA1 24 h post-KA (Hoechst, NeuN, cleaved-caspase 3 immunostaining). In kind it is in vivo, mice. The conditions noted are these: within 24 h of KA injection. Here is the method:
FIG. 8A-8Q is a series of schematics, images, and graphs showing IN-to-CA1 PC paired recordings and cell health parameters in 24 h post-KA condition. FIG. 8A and FIG. 8G are schematics of the genetic strategy to label PV-INs (PV^Cre; Ai14; FIG. 8A) or CCK-INs (D1×5/6^Flp; CCK^Cre; Ai65; FIG. 8G). FIG. 8B and FIG. 8H are representative images of tdTomato fluorescence in the CA1 field. Scale: 100 μm. N=2 mice per line. FIG. 8C and FIG. 8I are bar graphs showing quantification of the fraction of (FIG. 8C) PV- or (FIG. 8I) CCK-to-CA1 PC synaptically-connected pairs from the overall number of pairs recorded in both vehicle (Veh.) and 24 h post-KA mice. In FIG. 8C, Veh., n=13/22; KA, n=19/30; in FIG. 8I, Veh., n=16/40; KA, […], where n=number of connections/total pairs. FIG. 8D and FIG. 8J are dot plots showing quantification of the maximum firing rate of (FIG. 8D) PV- or (FIG. 8J) CCK-INs from connected pairs. […] FIG. 8E and FIG. 8K are dot plots showing quantification of spike adaptation ratio of (FIG. 8E) PV- or (FIG. 8J) CCK-INs from connected pairs as in FIG. 8D and FIG. 8J, respectively. FIG. 8F and FIG. 8L are line graphs showing quantification of paired pulse ratios (PPRs) of uIPSCs at the indicated interstimulus intervals (ISI) for (FIG. 8F) PV- (Veh., n=13/6; KA, n=19/7) or (FIG. 8L) CCK- (Veh., n=16/9; KA, n=16/4) to-CA1 PC connected pairs, where n=number of pairs/number of mice. […]

The subject of another data set is specific cell types. The note with it: cited from earlier work.

Take `C[N+]1([O-])CCN(C2=Nc3cc(Cl)ccc3Nc3ccccc32)CC1` [CNO, clozapine N-oxide]: in data set [1], the “firing rate of hM3DGq-expressing CA1 PC” value is recorded as “firing rate increases”.
With `C=C(C)[C@H]1CN[C@H](C(=O)O)[C@H]1CC(=O)O` [kainic acid], the “average percentage of mKate2+ neurons over total number of DAPI cells” value in the data set on CA1 neurons was 96%. In addition, the “cell death (Hoechst+, NeuN+, cleaved-caspase+ cells per 40-μm section, all layers of CA1)” value in the data set on CA1 is reported as “did not induce cell death”.
With “secretoneurin (TNEIVEEQYTPQSLATLESVFQELGKLTGPNNQ; listed as Homo sapiens) [33 aa]”, the “chemotaxic effects on specific cell types” value in the data set with specific cell types is “chemotaxic effects”.
